Experiment [1] concerns cancer cachexia, Yoshida hepatoma AH-130 cells. In words: Cachexia model (Yoshida hepatoma AH-130 inoculated rats). The experiment is classed as in vivo, Male Wistar Han rats. Conditions: rat, daily 0.17 or 1.7 μg/kg/d, vs saline placebo. On the procedure: Male Wistar Han rats aged 8 weeks with an approximate weight of 200 g were inoculated intraperitoneally with 10^8 Yoshida hepatoma. AH-130 cells. Body weight and body composition were assessed before tumor inoculation and on the day of sacrifice. Quality of life indicators (spontaneous activity, food and water intake) were measured on day 0 and on day 10/11. Tumor cells were counted at the last day of the study. Rats were treated daily with either (1) low dose (0.17 μg/kg/d) RYLLEAKEAENITTG (SEQ ID NO:1), (2) high dose (1.7 μg/kg/d) RYLLEAKEAENITTG (SEQ ID NO:1), or (3) or normal saline (placebo) (n=22). Body composition of animals was analyzed using an EchoMRI-700 (Echo Medical Systems, Houston, Tex., USA). The analysis of the body structures was based on Nuclear Magnetic Resonance. Spontaneous activity was measured by an infrared scanner over 24 hours using Supermex activity monitoring system (Muromachi Kikai Co., LTD., Tokyo, Japan).

Experiment [2] relates to histamine induced wheal (edema by intradermal histamine injection). In words: Histamine induced wheal formation. The experiment is classed as in vivo, Sprague-Dawley rats. The conditions noted are these: rat, 30 mcg/kg intravenously shortly after intradermal histamine, area at fifteen minutes, vs placebo; FIG. 2. On the procedure:
Under isofiurane anesthesia, 12 Sprague-Dawley rats' abdomens were shaved and depilated. Each rat was then injected intravenously (via internal jugular) with a dilute solution or Evans Blue (30 mg/ml in saline, 1 mg/kg bw). After 5 minutes, 6 small doses of histamine (histamine diphosphate, 20 microliters administered intradermally) in a rectangular pattern on each rat's abdomen. After fifteen minutes, when the wheal reaches its maximum size the wheal is photographed and the blister area was determined by digital planimetry. To test the efficacy of a peptide, RYLLEAKEAENITTG (SEQ ID NO:1) or placebo, was administered to the rats intravenously shortly after the histamine injection, at a dose of 30 mcg/kg.

The test system of the next experiment is sciatic nerve injury. The experiment can be described thus: Sciatic nerve injury assay (static sciatic index from toe spread). It counts as in vivo, Sprague-Dawley rats. Conditions: rat, 50 mcg/kg into the caudal vein after nerve stretch injury, toe splaying over next four days, vs PBS; FIG. 1. On the procedure: RYLLEAKEAENITTG (SECS ID NO:1) was tested for tissue protective activity using a sciatic nerve injury assay, Sprague-Dawley rats (250-300 grams) (six per group, including control) were anesthetized using isoflurane. The rat was then placed on a homeothermic blanket to ensure that the core temperature of the rat was maintained at 35-37° C. during the operation. Core temperature was monitored via a rectal probe. The right sciatic nerve of the anesthetized rat was exposed at mid thigh through a quadriceps muscle dissection; a 2 cm incision with a 15 blade scalpel was made through the skin parallel and over the quadriceps muscle and the quadriceps muscle was cut to expose the sciatic nerve using a pair of dissecting scissors. […]
Over the next four days the rear toe splaying of the rats was determined by placing the rat in an acrylic tube with a diameter of 30 cm on the scanning surface of a digital scanner. […] From the scans, the Toe Spread (the distance between the ball of the first toe and the ball of the fifth toe) and the Intermediate Toe Spread (the distance between the ball of the second toe and the ball of the fourth toe were measured. The static sciatic index (SSI) was then computed in accordance with S. Erbayraktar et al., 2003, Proc. Natl. Acad Sci USA 100, 6741-6746 (hereby incorporated by reference in its entirety) and statistical analysis performed.

Consider “RYLLEAKEAENITTG (peptide that have tissue protective activity) [tissue protective peptide of 15 amino acids derived from erythropoietin, made by Fmoc solid phase synthesis]”, for which the “loss of lean mass” value in experiment [1] (EchoMRI, FIG. 3C) was “reduced loss of lean mass”. The “physical activity (spontaneous activity)” value in experiment [1] (infrared scanner over 24 hours, FIG. 3D) was “increased physical activity”. In addition, the weight loss entry in experiment [1] (FIG. 3A) is given as “reduced weight loss”. Moreover, the epididymal fat result in experiment [1] (FIG. 3B) is on record as “preserved epididymal fat”. Besides, in experiment [2], the wheal area result is “significantly reduced”. Also, the “sciatic nerve injury (static sciatic index, SSI)” value with sciatic nerve injury was “reduces sciatic nerve injury”.

Values taken from patent US20210107942A1, “TISSUE PROTECTIVE PEPTIDES AND PEPTIDE ANALOGS FOR PREVENTING AND TREATING DISEASES AND DISORDERS ASSOCIATED WITH TISSUE DAMAGE” (Araim Pharmaceuticals, Inc., priority 2013, published 2021).
